Patent US12338219B2, “Antimalarial agents” (Merck Sharp & Dohme LLC, priority 2019, dated 2025)

Tested on: parasites (ring stage parasites, parasite growth)
Assay: Parasite LDH growth assay (Parasite Assay), antiparasite potency
Assay type: cell-based
Conditions: 72 hours growth, LDH readout
Experimental: Assessing Antiparasite Potency in a Parasite LDH Growth Assay (Parasite Assay) The parasite stock was maintained at […] in RPMI-Hepes media buffered with sodium bicarbonate and supplemented with […]. […] On the day of assay set up, a blood smear of the parasite culture was Giemsa stained and counted. The parasitemia was adjusted to 0.7% rings and the haematocrit was diluted to 2% in RPMI-Hepes media buffered with sodium bicarbonate and supplemented with 500 heat inactivated human serum and 0.5% albumax. 30 ul of diluted parasites are then added into 10 ul of media+compound in pre-prepared Greiner TC assay plates. Parasite assay plates were placed in gassed humidified boxes in single layer and allowed to incubate at 37° C. for 72 hours. After 72 hours growth, assay plates are sealed with parafilm and frozen flat, in single file at −80° C. overnight. On the following day, assay plates are allowed to thaw at room temperature for 4 hours to which an LDH assay is performed to measure parasite growth.

Compound: CC[C@]1(C)CC(=O)N([C@@H](c2cncc(F)c2)[C@@H]2C[C@H]2C(=O)N[C@@H]2c3ccccc3OCC2(C)C)C(=N)N1 [Example 102B]
- EC50 (72 h, Table 3): 2.5 nM

Compound: COc1cccc2c1[C@@H](NC(=O)[C@@H]1C[C@H]1CN1C(=N)NC(C)(C)CC1=O)CC(C)(C)O2 [Example 73]
- EC50 (72 h, Table 3): 192 nM

Compound: CCC1(CC)CC(=O)N([C@@H](c2cccnc2)[C@@H]2C(C)[C@H]2C(=O)N[C@H]2C[C@H](C(F)(F)F)Oc3ccccc32)C(=N)N1 (some centres unmarked) [Example 55B]
- EC50 (72 h, Table 3): 180 nM

Compound: CC1(C)CC(=O)N([C@H](c2cncc(Cl)c2)[C@@H]2C[C@H]2C(=O)N[C@H]2C[C@H](C(F)(F)F)Oc3ccccc32)C(=N)N1 [Example 60A]
- EC50 (72 h, Table 3): 0.5 nM

Compound: CC1[C@@H]([C@@H](c2cccnc2)N2C(=N)NC(C)(C)CC2=O)[C@@H]1C(=O)N[C@H]1CC(C)(C)Oc2ccccc21 (some centres unmarked) [Example 57A]
- EC50 (72 h, Table 3): 3.2 nM

Compound: CCC1(C)CC(NC(=O)[C@@H]2C[C@H]2[C@@H](CCOC)N2C(=N)NC(C)(C)CC2=O)c2ccccc2O1 (single isomer, unassigned) [Example 75D]
- EC50 (Table 3): 7 nM

Compound: COCC[C@H]([C@@H]1C[C@H]1C(=O)NC1CC(C)(C(C)C)Oc2ccccc21)N1C(=N)NC(C)(C)CC1=O (single isomer, unassigned) [Example 80D]
- EC50 (Table 3): 21 nM

Compound: CCC1(CC)CC(=O)N([C@H](c2cccnc2)[C@@H]2C[C@H]2C(=O)N[C@H]2C[C@H](C(F)(F)F)Oc3ccccc32)C(=N)N1 [Example 12]
- EC50 (72 h, Table 3): 0.9 nM

Compound: CCC1(CC)CC(=O)N(C(CC(C)OC)[C@@H]2C[C@H]2C(=O)N[C@H]2CC(C)(C)Oc3ccccc32)C(=N)N1 (single isomer, unassigned) [Example 142C]
- EC50 (Table 4 (unit inferred)): 205 nM

Compound: CCC1(CC)CC(=O)N(C[C@@H]2C(C)[C@H]2C(=O)N[C@@H]2c3ccccc3CC2(C)O)C(=N)N1 (single isomer, unassigned) [Example 29A]
- EC50 (Table 3): 203 nM

Compound: CCC1(CC)CC(=O)N(C[C@@H]2C(C)[C@H]2C(=O)N[C@H]2CC(C)(C)Oc3ccccc32)C(=N)N1 (single isomer, unassigned) [Example 25A]
- EC50 (Table 3): 84 nM

Compound: COCC[C@H]([C@@H]1C[C@H]1C(=O)N[C@H]1CC(C)(C)Oc2cc(C)c(Cl)cc21)N1C(=N)NC(C)(C)CC1=O [Example 137B]
- EC50 (72 h, Table 3): 6.4 nM

Compound: COCC[C@H]([C@@H]1C[C@H]1C(=O)N[C@@H]1CC(C)(C)Oc2cc(Cl)ccc21)N1C(=N)NC(C)(C)CC1=O [Example 89B]
- EC50 (72 h, Table 3): 22 nM

Compound: CCC1(CC)CC(=O)N([C@H](CCOC)[C@@H]2C[C@H]2C(=O)NC2CC(C)(C)Oc3cccc(Cl)c32)C(=N)N1 (some centres unmarked) [Example 149A]
- EC50 (72 h, Table 4 (unit inferred)): 1 nM

Compound: CC[C@]1(C)CC(=O)N([C@@H](CCOC)[C@@H]2C[C@H]2C(=O)N[C@H]2C[C@H](C(F)(F)F)Oc3ccccc32)C(=N)N1 [Example 62A]
- EC50 (72 h, Table 3): 31 nM

Compound: COCC[C@H]([C@@H]1C[C@H]1C(=O)N[C@H]1CCOc2ccccc21)N1C(=N)N[C@](C)(C(C)C)CC1=O [Example 22]
- EC50 (72 h, Table 3): 44 nM

Compound: CC1(C)CC(=O)N([C@H](c2cccnc2)[C@@H]2C[C@H]2C(=O)N[C@H]2CC(C)(C)Oc3ccccc32)C(=N)N1 [Example 26]
- EC50 (72 h, Table 3): 4.7 nM

Compound: CCC1(CC)CC(=O)N(C[C@H]2C[C@@H]2C(=O)N[C@H]2CCOc3ccccc32)C(=N)N1 [Example 4A]
- EC50 (72 h, Table 3): 94 nM

Compound: CCC1(CC)CC(=O)N(C[C@@H]2C(C)[C@H]2C(=O)N[C@@H]2c3ccccc3OCC2(C)O)C(=N)N1 (single isomer, unassigned) [Example 35A]
- EC50 (Table 3): 85 nM

Compound: CC1(C)CC(=O)N([C@H](c2cccnc2)[C@@H]2C[C@H]2C(=O)N[C@H]2CC(C)(C)Oc3cc(Cl)ccc32)C(=N)N1 [Example 91A]
- EC50 (72 h, Table 3): 0.8 nM

Compound: CC1(C)CC(=O)N([C@H](c2cccnc2)[C@@H]2C[C@H]2C(=O)N[C@H]2CC(C)(C)Oc3c(C(F)(F)F)ccc(F)c32)C(=N)N1 [Example 115B]
- EC50 (72 h, Table 3): 1 nM

Compound: CCC1(CC)CC(=O)N(C[C@H]2C(C(=O)N[C@@H]3c4ccccc4OC(C)(C)[C@H]3O)C2(F)F)C(=N)N1 (some centres unmarked) [Example 18A]
- EC50 (72 h, Table 3): 39 nM

Compound: CC[C@]1(C)CC(=O)N([C@H](CCOC)[C@@H]2C[C@H]2C(=O)NC2CC(C)(C)Oc3ccc(OC(F)(F)F)cc32)C(=N)N1 (some centres unmarked) [Example 129A]
- EC50 (72 h, Table 3): 1.3 nM
